Reference: US10759766B2, “Certain chemical entities, compositions, and methods” (NeuPharma, Inc., priority 2011, dated 2020)

Key:
BRAF V600E = BRAF V600E (Homo sapiens (Human), UniProt P15056, V600E); assay: Z′-LYTE kinase inhibition assay (Invitrogen), BRAF V600E; type: biochemical; conditions: 1 μM compound, Z′-LYTE method; read-out: % inhibition at 1 μM against BRAF V600E
Method: (§1) Inhibitory activities Inhibitory activities of compounds against BRAF, and BRAF V600E were measured by Invitrogen using Z′-LYTE® Method as briefly described in the following. 4× Test compounds are dissolved in 1% DMSO. […] ATP solutions are diluted to a 4×ATP working concentration in Kinase Buffer (50 mM HEPES pH 7.5, 0.01% BRIJ-35, 10 mM MgCl2, 1 mM EGTA). Reaction started by 30-second shaking of mixture consisting of 2.5 μL 4× test compound, […] and 2.5 μL 4×ATP Solution on Bar-coded Corning, low volume NBS, black 384-well plate (Corning Cat. #3676). Then the mixture was incubated for 60-minute at room temperature for the kinase reaction, followed by addition of 5 μL of a 1:1024 dilution of development reagent A and 30-second plate shake. The mixture was then incubated for another 60-minute at room temperature for development reaction. Fluorescence was read by plate reader. IC50 was calculated by plotting the concentration of compound vs the percentage of inhibition in treated wells using GraphPad Prism 5.
The scale utilized in Table 3 is as follows: +++ less than 100 nM; and ++ greater than 100 nM.

KDR (VEGFR2) = KDR (VEGFR2) (Homo sapiens (Human), UniProt P35968); assay: Z′-LYTE kinase inhibition assay (Invitrogen), KDR; type: biochemical; conditions: Z′-LYTE method; for inhibition at 1 µM: 1 μM compound, read-out: % inhibition at 1 μM against KDR; for IC50: read-out: IC50 against KDR
Chain of KDR (VEGFR2) (P35968 20-1356): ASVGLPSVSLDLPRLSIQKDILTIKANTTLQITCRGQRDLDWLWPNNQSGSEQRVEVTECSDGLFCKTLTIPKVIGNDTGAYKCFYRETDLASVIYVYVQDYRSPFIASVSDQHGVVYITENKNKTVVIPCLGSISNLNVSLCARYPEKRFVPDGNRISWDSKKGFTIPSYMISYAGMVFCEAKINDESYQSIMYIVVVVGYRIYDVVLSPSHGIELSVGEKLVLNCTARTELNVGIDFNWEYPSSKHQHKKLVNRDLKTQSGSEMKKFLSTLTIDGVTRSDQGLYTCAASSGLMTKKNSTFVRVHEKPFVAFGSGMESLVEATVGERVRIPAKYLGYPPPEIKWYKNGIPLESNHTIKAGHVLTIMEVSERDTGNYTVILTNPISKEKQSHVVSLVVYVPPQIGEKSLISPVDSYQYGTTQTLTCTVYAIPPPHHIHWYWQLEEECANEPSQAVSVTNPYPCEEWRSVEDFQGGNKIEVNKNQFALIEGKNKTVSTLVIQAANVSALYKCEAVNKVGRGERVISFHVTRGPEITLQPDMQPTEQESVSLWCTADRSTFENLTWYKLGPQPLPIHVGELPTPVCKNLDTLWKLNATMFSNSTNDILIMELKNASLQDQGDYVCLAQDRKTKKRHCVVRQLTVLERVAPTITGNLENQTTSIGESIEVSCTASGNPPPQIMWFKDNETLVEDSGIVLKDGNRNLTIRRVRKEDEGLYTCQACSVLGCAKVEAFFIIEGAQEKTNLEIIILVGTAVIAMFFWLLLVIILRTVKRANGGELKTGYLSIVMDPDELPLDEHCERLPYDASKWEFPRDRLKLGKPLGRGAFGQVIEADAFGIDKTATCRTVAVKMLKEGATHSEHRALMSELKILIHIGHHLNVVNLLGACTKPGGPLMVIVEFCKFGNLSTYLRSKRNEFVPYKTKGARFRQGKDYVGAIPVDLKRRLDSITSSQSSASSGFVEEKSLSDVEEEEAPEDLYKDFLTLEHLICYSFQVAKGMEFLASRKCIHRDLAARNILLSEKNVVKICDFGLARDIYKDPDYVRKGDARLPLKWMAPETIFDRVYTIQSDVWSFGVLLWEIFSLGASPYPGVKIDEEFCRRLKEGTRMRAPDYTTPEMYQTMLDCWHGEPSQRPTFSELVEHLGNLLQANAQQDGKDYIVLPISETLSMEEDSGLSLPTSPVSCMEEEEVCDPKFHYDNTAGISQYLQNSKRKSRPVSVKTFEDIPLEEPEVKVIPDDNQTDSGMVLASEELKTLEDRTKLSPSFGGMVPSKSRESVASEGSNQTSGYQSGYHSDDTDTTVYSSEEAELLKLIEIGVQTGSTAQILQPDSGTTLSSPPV
Method: as §1
Inhibitory activities of compounds against KDR (VEGFR2) were also measured by Invitrogen using Z′-LYTE® Method as described above with the following modification. The 2× KDR (VEGFR2)/Tyr 01 mixture is prepared in 50 mM HEPES pH 7.5, 0.01% BRIJ-35, 10 mM MgCl2, 1 mM EGTA. The final 10 μL Kinase Reaction consists of 0.5-11.7 ng KDR (VEGFR2) and 2 μM Tyr 01 in 50 mM HEPES pH 7.5, 0.01% BRIJ-35, 10 mM MgCl2, 1 mM EGTA. After the 1 hour Kinase Reaction incubation, 5 μL of a 1:256 dilution of Development Reagent B is added.
The scale utilized in Table 5 is as follows: +++ less than 100 nM; and ++ greater than 100 nM

A375 cells = assay: Inhibition of cancer cell growth, MTT assay, A375; type: cell-based; conditions: Homo sapiens, A-375, 72 h exposure
Method: (§2) Inhibition of cell growth by compounds was measured using MTT assay (Mosmann, T., Journal of Immunological Methods, 1983, 65, 55-63). Tumor cell lines were purchased from ATCC (American Type Culture Collection, Manassas, Va.). All cell lines were maintained in RPMI 1640 (Hyclone) supplemented with 10% fetal bovine serum (FBS, Hyclone), glutamine (2 mM, Hyclone), and antibiotics (penicillin 100 U/mL and streptomycin 50 μg/mL) at 37° C. in a humidified atmosphere of 5% CO2 in air. Taxol (as a positive control, Sigma) and compounds were dissolved in DMSO (Sigma), and the final concentration of DMSO in the medium was 1%. Tumor cells were plated in 96-well plates at densities of about 4000 cells/well of a 96-well plate and allowed to adhere/grow for 24 h. They were then treated with various concentrations of drug for 72 h. 3-(4,5-Dimethylthiazol-2-yl)-2,5-diphenyltetrazolium bromide (MTT, Sigma) was used to determine the number of viable cells at the time of compound addition and the number of cells remaining after 72 h compound exposure. The number of cells remaining after 72 h was compared to the number of viable cells at the time of compound addition by measuring the absorbance at 570 nm, allowing for the calculation of growth inhibition.
(§3) All concentrations of compounds were tested in triplicate and controls were averaged over 4 wells. IC50 was calculated by plotting the concentration of compound vs the percentage of inhibition in treated wells using GraphPad Prism 5. […] The scale utilized in Table 6 is as follows: +++ less than 1000 nM; ++ between 1000 nM and 5000 nM; and + greater than 5000 nM. The scale utilized in Table 7 is as follows: +++ less than 2000 nM; ++ between 2000 nM and 5000 nM; and + greater than 5000 nM.

A549 cells = assay: Inhibition of cancer cell growth, MTT assay, A549; type: cell-based; conditions: Homo sapiens, A549, 72 h exposure
Method: as §2, §3

Chain of BRAF V600E (P15056 whole entry V600E): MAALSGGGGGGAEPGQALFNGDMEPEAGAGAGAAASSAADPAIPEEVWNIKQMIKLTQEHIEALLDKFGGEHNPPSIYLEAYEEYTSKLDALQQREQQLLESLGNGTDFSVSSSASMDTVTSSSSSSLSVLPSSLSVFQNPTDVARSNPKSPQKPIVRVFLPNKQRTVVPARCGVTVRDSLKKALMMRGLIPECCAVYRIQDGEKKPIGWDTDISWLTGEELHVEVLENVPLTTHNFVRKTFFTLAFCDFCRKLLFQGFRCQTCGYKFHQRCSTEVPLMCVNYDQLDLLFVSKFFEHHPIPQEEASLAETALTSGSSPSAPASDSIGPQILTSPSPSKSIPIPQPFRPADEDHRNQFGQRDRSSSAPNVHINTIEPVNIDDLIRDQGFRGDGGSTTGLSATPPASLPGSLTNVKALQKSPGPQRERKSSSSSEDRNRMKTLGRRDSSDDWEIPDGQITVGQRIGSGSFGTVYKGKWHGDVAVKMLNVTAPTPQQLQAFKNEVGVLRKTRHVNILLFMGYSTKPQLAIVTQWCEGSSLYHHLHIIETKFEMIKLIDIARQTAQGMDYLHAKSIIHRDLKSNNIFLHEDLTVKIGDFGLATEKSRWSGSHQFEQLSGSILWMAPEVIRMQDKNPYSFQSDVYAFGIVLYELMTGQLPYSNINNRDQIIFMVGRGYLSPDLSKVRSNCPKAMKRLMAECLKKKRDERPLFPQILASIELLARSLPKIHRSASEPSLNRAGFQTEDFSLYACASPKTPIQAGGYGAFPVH

Row | Structure (SMILES) | inhibition at 1 µM (BRAF V600E) [%] | inhibition at 1 µM (KDR (VEGFR2)) [%] | IC50 (A375 cells) [µM] | IC50 (A549 cells) [µM] | IC50 (KDR (VEGFR2)) [µM]
1 | O=C(Nc1cc(F)c(F)c(C(=O)c2ccc3ncc(N4CCOCC4)nc3c2)c1F)c1cccc(F)c1 [Compound C137, 3-fluoro-N-(2,4,5-trifluoro-3-(3-morpholinoquinoxaline-6-carbonyl)phenyl)benzamide] | 70 to 89 | 70 to 89 | > 5 | > 5 | –
2 | O=C(Nc1cc(F)cc(Cl)c1)Nc1cc(F)cc(C(=O)c2ccc3ncc(N4CCOCC4)nc3c2)c1 [Compound C060, 1-(3-chloro-5-fluorophenyl)-3-(3-fluoro-5-(3-morpholinoquinoxaline-6-carbonyl)phenyl)urea] | > 89 | < 70 | 1 to 5 | 2 to 5 | –
3 | NCCNc1cnc2ccc(C(=O)c3cc(NC(=O)Nc4cccc(F)c4)ccc3F)cc2n1 [Compound C088, 1-(3-(3-((2-aminoethyl)amino)quinoxaline-6-carbonyl)-4-fluorophenyl)-3-(3-fluorophenyl)urea] | > 89 | > 89 | 1 to 5 | > 5 | –
4 | O=C(Nc1ccc(Cl)cc1)Nc1cc(F)cc(C(=O)c2ccc3ncc(N4CCOCC4)nc3c2)c1 [Compound C045, 1-(4-chlorophenyl)-3-(3-fluoro-5-(3-morpholinoquinoxaline-6-carbonyl)phenyl)urea] | > 89 | < 70 | < 1 | 2 to 5 | –
5 | O=C(Nc1cccc(Cl)c1)Nc1cc(F)cc(C(=O)c2ccc3ncc(N4CCOCC4)nc3c2)c1 [Compound C047, 1-(3-chlorophenyl)-3-(3-fluoro-5-(3-morpholinoquinoxaline-6-carbonyl)phenyl)urea] | > 89 | < 70 | 1 to 5 | 2 to 5 | –
6 | O=C(Nc1cc(F)c(F)c(C(=O)c2ccc3nccnc3c2)c1)c1cccc(C(F)(F)F)c1 [Compound C128, N-(3,4-difluoro-5-(quinoxaline-6-carbonyl)phenyl)-3-(trifluoromethyl)benzamide] | > 89 | 70 to 89 | 1 to 5 | > 5 | –
7 | O=C(Nc1cc(F)cc(C(=O)c2ccc3ncc(N4CCOCC4)nc3c2)c1)c1cccc(F)c1 [Compound C142, 3-fluoro-N-(3-fluoro-5-(3-morpholinoquinoxaline-6-carbonyl)phenyl)benzamide] | 70 to 89 | 70 to 89 | 1 to 5 | 2 to 5 | –
8 | O=C(Nc1ccc(Cl)cc1)Nc1ccc(F)c(C(=O)c2ccc3nccnc3c2)c1 [Compound C074, 1-(4-chlorophenyl)-3-(4-fluoro-3-(quinoxaline-6-carbonyl)phenyl)urea] | > 89 | < 70 | 1 to 5 | > 5 | –
9 | O=C(Nc1cc(F)cc(F)c1)Nc1cc(F)c(F)c(C(=O)c2ccc3ncc(N4CCNCC4)nc3c2)c1 [Compound C104, 1-(3,4-difluoro-5-(3-(piperazin-1-yl)quinoxaline-6-carbonyl)phenyl)-3-(3,5-difluorophenyl)urea] | – | – | – | > 5 | –
10 | O=C(Nc1ccc(Cl)c(C(F)(F)F)c1)Nc1ccc(F)c(C(=O)c2ccc3nccnc3c2)c1F [Compound C012, 1-(4-chloro-3-(trifluoromethyl)phenyl)-3-(2,4-difluoro-3-(quinoxaline-6-carbonyl)phenyl)urea] | < 70 | < 70 | 1 to 5 | < 2 | –
11 | O=C(Nc1ccc(F)c(Cl)c1)Nc1ccc(F)c(C(=O)c2ccc3nccnc3c2)c1 [Compound C073, 1-(3-chloro-4-fluorophenyl)-3-(4-fluoro-3-(quinoxaline-6-carbonyl)phenyl)urea] | > 89 | > 89 | 1 to 5 | > 5 | –
12 | O=C(Nc1ccc(F)c(F)c1)Nc1ccc(F)c(C(=O)c2ccc3ncc(N4CCNCC4)nc3c2)c1 [Compound C102, 1-(3,4-difluorophenyl)-3-(4-fluoro-3-(3-(piperazin-1-yl)quinoxaline-6-carbonyl)phenyl)urea] | > 89 | > 89 | – | 2 to 5 | < 0.1
13 | O=C(Nc1ccc(F)cc1)Nc1cc(F)c(F)c(C(=O)c2ccc3ncc(N4CCOCC4)nc3c2)c1 [Compound C095, 1-(3,4-difluoro-5-(3-morpholinoquinoxaline-6-carbonyl)phenyl)-3-(4-fluorophenyl)urea] | > 89 | 70 to 89 | – | > 5 | –
14 | O=C(Nc1cc(F)cc(F)c1)Nc1ccc(F)c(C(=O)c2ccc3ncc(N4CCOCC4)nc3c2)c1 [Compound C094, 1-(3,5-difluorophenyl)-3-(4-fluoro-3-(3-morphlinoquinoxaline-6-carbonyl)phenyl)urea] | > 89 | < 70 | – | > 5 | –
15 | O=C(Nc1ccc(F)c(F)c1)Nc1cc(F)c(F)c(C(=O)c2ccc3ncc(N4CCNCC4)nc3c2)c1 [Compound C103, 1-(3,4-difluoro-5-(3-(piperazin-1-yl)quinoxaline-6-carbonyl)phenyl)-3-(3,4-difluorophenyl)urea] | – | – | – | 2 to 5 | –
16 | O=C(Nc1cccc(F)c1)Nc1cc(F)c(F)c(C(=O)c2ccc3ncc(N4CCNCC4)nc3c2)c1 [Compound C098] | > 89 | 70 to 89 | – | 2 to 5 | –
17 | O=C(Nc1cc(F)cc(F)c1)Nc1cc(F)cc(C(=O)c2ccc3ncc(N4CCOCC4)nc3c2)c1 [Compound C093] | > 89 | < 70 | – | 2 to 5 | –
18 | O=C(Nc1cc(F)cc(F)c1)Nc1cc(F)c(F)c(C(=O)c2ccc3ncc(N4CCOCC4)nc3c2)c1 [Compound C097] | > 89 | < 70 | – | 2 to 5 | –
19 | O=C(Nc1cc(F)cc(F)c1)Nc1ccc(F)c(C(=O)c2ccc3ncc(N4CCNCC4)nc3c2)c1 [Compound C101, 1-(3,5-difluorophenyl)-3-(4-fluoro-3-(3-(piperazin-1-yl)quinoxaline-6-carbonyl)phenyl)urea] | > 89 | 70 to 89 | – | 2 to 5 | –
20 | O=C(Nc1ccc(F)c(F)c1)Nc1cc(F)c(F)c(C(=O)c2ccc3ncc(N4CCOCC4)nc3c2)c1 [Compound C096] | > 89 | < 70 | – | > 5 | –
21 | O=C(Nc1ccc(F)cc1)Nc1cc(F)c(F)c(C(=O)c2ccc3ncc(N4CCNCC4)nc3c2)c1 [Compound C099, 1-(3,4-difluoro-5-(3-(piperazin-1-yl)quinoxaline-6-carbonyl)phenyl)-3-(4-fluorophenyl)urea] | > 89 | 70 to 89 | – | < 2 | > 0.1
22 | O=C(Nc1ccc(F)c(C(=O)c2ccc3nccnc3c2)c1F)c1cccc(C(F)(F)F)c1 [Compound C114, N-(2,4-difluoro-3-(quinoxaline-6-carbonyl)phenyl)-3-(trifluoromethyl)benzamide] | 70 to 89 | 70 to 89 | – | > 5 | –
